Data set [1] deals with T1, Human NPY5 receptor (Homo sapiens, UniProt Q15761).
T1 sequence (Q15761 1-445): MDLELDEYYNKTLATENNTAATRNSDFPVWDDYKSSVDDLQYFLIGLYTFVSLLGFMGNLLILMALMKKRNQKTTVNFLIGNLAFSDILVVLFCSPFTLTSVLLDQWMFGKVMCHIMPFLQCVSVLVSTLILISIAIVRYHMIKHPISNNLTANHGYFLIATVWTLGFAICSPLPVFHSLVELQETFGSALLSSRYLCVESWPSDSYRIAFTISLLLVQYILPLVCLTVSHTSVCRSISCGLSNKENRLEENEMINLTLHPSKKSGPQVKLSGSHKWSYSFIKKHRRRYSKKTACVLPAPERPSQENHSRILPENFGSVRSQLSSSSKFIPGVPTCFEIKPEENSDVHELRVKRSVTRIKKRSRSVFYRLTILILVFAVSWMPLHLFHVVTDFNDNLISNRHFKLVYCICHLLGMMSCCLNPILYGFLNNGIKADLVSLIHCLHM
The data set can be described thus: Human NPY5 receptor binding assay ([125I]PYY, membrane protein). An outline of the steps:
(§1)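 Radioligand displacement: 75-100 pM [125I]PYY (porcine), membranes, drug dilution; 2 h, RT, mixing; 25 mM Tris pH 7.4 with 0.1% BSA, 0.5 mg/ml bacitracin. NSB 1 μM PYY. Filtration on PEI-treated GF/C, ice-cold buffer wash, gamma or scintillation counting.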

Data set [2] has as its target T2, Human NPY1 receptor (Homo sapiens, UniProt P25929).
T2 construct: host or cells: SK-N-MC cells
T2 sequence (P25929 1-384): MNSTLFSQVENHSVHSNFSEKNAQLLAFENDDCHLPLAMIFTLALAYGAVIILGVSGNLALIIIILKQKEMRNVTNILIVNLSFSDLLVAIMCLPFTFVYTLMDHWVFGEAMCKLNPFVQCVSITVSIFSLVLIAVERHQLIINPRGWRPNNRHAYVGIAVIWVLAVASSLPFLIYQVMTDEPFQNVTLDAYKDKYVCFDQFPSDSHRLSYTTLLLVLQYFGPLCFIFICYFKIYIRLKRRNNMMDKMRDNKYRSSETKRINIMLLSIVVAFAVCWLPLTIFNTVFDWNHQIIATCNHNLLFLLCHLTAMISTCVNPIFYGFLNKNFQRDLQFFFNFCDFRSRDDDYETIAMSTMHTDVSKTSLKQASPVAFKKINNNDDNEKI
Description: Human NPY1 receptor binding assay ([125I]PYY, SK-N-MC cells). Conditions: [125I]PYY, SK-N-MC cells; read-out: hNPYI IC50. An outline of the steps:
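Whole-cell competition with ~50 pM [125I]PYY on SK-N-MC monolayers, 3 h at room temperature after 30 min preincubation in HEPES-buffered (pH 7.3) serum-free DMEM containing protease inhibitors. Gamma counting of cell lysates; 1 μM NPY gave nonspecific binding.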

Data set [3] deals with T3, Rat NPY5 receptor (Rattus norvegicus, UniProt Q63634).
T3 sequence (Q63634 1-445): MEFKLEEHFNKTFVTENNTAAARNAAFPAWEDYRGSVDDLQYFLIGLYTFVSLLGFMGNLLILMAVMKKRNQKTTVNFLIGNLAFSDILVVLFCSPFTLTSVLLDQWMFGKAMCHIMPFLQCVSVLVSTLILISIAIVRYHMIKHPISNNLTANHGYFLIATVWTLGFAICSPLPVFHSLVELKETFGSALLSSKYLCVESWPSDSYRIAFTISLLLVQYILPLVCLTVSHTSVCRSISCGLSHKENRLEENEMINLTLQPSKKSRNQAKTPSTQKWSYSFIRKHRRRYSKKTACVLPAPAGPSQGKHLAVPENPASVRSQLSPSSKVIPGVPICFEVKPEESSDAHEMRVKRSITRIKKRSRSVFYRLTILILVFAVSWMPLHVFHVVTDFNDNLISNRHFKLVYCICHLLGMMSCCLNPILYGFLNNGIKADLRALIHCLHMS
Description: Rat NPY5 cyclase assay (in vitro functional assay, forskolin-stimulated adenylate cyclase, cAMP). The class given is cell-based. The note with it: 20 min; 10 μM; percentage of forskolin-stimulated adenylate cyclase; read-out: rNPY5 % FSAC (10 μM). An outline of the steps: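 Cells stably expressing rat NPY5 receptor, in serum-free DMEM with 10 mM HEPES pH 7.4 and 1 mM IBMX, received […] plus compound for 20 min at 37 °C. Reactions were stopped by boiling. cAMP was quantified by radioimmunoassay and expressed as % of forskolin-stimulated adenylate cyclase.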

Data set [4] concerns the target human Y4/PP1 receptor (Homo sapiens, UniProt P50391). Description: Human Y4/PP1 receptor binding assay ([125I]human PP, membrane protein). The note with it: [125I]human PP, membrane protein; read-out: hNPY4 IC50. Summed up:
(§2)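 Filtration binding with membrane protein and drug dilution, 2 h at room temperature with mixing, radioactivity counted by gamma or scintillation. Y2: 25 pM [125I]PYY in Krebs-Ringer bicarbonate pH 7.4 with 0.01% BSA, nonspecific by 1 μM NPY. Y4/PP1: 50 pM [125I]hPP in HEPES-buffered saline pH 7.4 with protease inhibitors and 0.3% BSA, nonspecific by 1 μM hPP.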

In data set [5] the target is T4, Y2 receptor (Homo sapiens, UniProt P49146).
T4 sequence (P49146 1-381): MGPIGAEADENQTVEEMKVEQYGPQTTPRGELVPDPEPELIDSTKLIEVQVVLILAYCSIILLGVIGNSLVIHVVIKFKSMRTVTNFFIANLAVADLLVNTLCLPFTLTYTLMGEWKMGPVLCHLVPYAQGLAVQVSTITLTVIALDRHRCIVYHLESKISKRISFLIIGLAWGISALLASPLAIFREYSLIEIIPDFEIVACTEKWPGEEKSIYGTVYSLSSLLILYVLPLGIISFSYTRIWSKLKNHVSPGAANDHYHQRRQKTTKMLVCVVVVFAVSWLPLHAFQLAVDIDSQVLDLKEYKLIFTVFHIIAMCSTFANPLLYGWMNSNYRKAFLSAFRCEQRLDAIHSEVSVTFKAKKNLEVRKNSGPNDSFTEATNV
The data set can be described thus: Y2 receptor binding assay ([125I]PYY, membrane protein). Conditions: [125I]PYY, membrane protein; read-out: hNPY2 IC50. Summed up:
as §2

Data set [6] concerns the target T3, Rat NPY5 receptor. The data set can be described thus: Rat NPY5 receptor binding assay ([125I]PYY, membrane protein). An outline of the steps:
as §1

Setting [7] is: [125I]PYY, read-out: hNPY5 IC50.
Where [8] appears, read: [125I]PYY, read-out: rNPY5 IC50.

Where two headings read alike, the source gives them in different places.

Chain of human Y4/PP1 receptor (P50391 whole entry): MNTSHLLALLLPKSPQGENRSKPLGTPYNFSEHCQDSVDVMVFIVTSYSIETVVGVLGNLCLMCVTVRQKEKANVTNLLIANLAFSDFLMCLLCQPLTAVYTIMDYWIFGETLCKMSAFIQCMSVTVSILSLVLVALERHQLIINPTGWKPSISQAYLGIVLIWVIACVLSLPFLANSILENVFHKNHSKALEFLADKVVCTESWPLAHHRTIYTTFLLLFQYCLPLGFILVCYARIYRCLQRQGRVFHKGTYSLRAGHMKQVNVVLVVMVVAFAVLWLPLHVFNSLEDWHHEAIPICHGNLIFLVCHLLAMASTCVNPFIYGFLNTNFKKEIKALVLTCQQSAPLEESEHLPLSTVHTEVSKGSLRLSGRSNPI

`O=C(CN1CCC(n2c(=O)[nH]c3ccccc32)CC1)Nc1ccc(C2CCCCC2)cc1` [Compound 251, N-(4-Cyclohexyl-phenyl)-2-[4-(2-oxo-2,3-dihydrobenzoimidazol-1-yl)-piperidin-1-yl]-acetamide] returned a melting point of 130 to 132 °C. Moreover, the IC50 in data set [1] (setting [7]) was determined as 4 nM. Further, the IC50 in data set [2] was above 5 µM. In data set [3], the activity at 10 µM came to 92%. The IC50 in data set [4] is above 5 µM. For the same molecule, in data set [5], the IC50 was above 5 µM.
Consider `CCCc1ccc(NC(=O)CN2CCC(n3c(=O)[nH]c4ccccc43)CC2)cc1` [Compound 253, 2-[4-(2-Oxo-2,3-dihydro-benzoimidazol-1-yl)-piperidin-1-yl]-N-(4-propyl-phenyl)-acetamide], for which the melting point was 116 to 117 °C. In addition, the IC50 in data set [1] (setting [7]) worked out at 63 nM. Further, the IC50 in data set [6] (setting [8]) was found to be 50 nM. Also, the IC50 in data set [2] was above 5 µM. Besides, the activity at 10 µM in data set [3] was 99%. For the same molecule, the IC50 in data set [4] is above 5 µM. Also, the IC50 in data set [5] is above 5 µM.
In turn, `CCCCc1ccc(NC(=O)CN2CCC(n3c(=O)[nH]c4ccccc43)CC2)cc1` [Compound 254, N-(4-Butyl-phenyl)-2-[4-(2-oxo-2,3-dihydro-benzoimidazol-1-yl)-piperidin-1-yl]-acetamide] returned a melting point of 130 to 131 °C. For the same molecule, the IC50 in data set [1] (setting [7]) is 43 nM. For the same molecule, the IC50 in data set [2] was above 5 µM. Besides, the activity at 10 µM in data set [3] came out at 103%. Also, the IC50 in data set [4] is above 5 µM. The IC50 in data set [5] is above 5 µM.
In turn, `CCCCCc1ccc(NC(=O)CN2CCC(n3c(=O)[nH]c4ccccc43)CC2)cc1` [Compound 255, 2-[4-(2-Oxo-2,3-dihydro-benzoimidazol-1-yl)-piperidin-1-yl]-N-(4-pentyl-phenyl)-acetamide] showed a melting point of 127 to 128 °C. Besides, the IC50 in data set [1] (setting [7]) was 74 nM. Moreover, the IC50 in data set [2] is above 5 µM. Further, the activity at 10 µM in data set [3] was 95%. Further, the IC50 in data set [4] was above 5 µM. Further, in data set [5], the IC50 is above 5 µM.
For `CCCCCCc1ccc(NC(=O)CN2CCC(n3c(=O)[nH]c4ccccc43)CC2)cc1` [Compound 256, N-(4-Hexyl-phenyl)-2-[4-(2-oxo-2,3-dihydro-benzoimidazol-1-yl)-piperidin-1-yl]-acetamide], the melting point was 128 to 129 °C. Further, the IC50 in data set [1] (setting [7]) stood at 120 nM. Moreover, the half-inhibitory concentration (IC50) in data set [2] is above 5 µM. Further, the activity at 10 µM in data set [3] was determined as 92%. In addition, the IC50 in data set [4] is above 5 µM. The IC50 in data set [5] was above 5 µM.
In the case of `CC(C)c1ccc(NC(=O)CN2CCC(n3c(=O)[nH]c4ccccc43)CC2)cc1` [Compound 257, N-(4-Isopropyl-phenyl)-2-[4-(2-oxo-2,3-dihydro-benzoimidazol-1-yl)-piperidin-1-yl]-acetamide], the melting point fell in the range of 133 to 134 °C. The IC50 in data set [1] (setting [7]) stood at 110 nM. In data set [2], the IC50 is above 5 µM. For the same molecule, the activity at 10 µM in data set [3] came out at 88%. Moreover, in data set [4], the IC50 was above 5 µM. For the same molecule, in data set [5], the IC50 is above 5 µM.
On to `O=C(CN1CCC(n2c(=O)[nH]c3ccccc32)CC1)Nc1ccc(-c2ccc(F)cc2)cc1` [Compound 259, N-(4′-Fluoro-biphenyl-4-yl)-2-[4-(2-oxo-2,3-dihydro-benzoimidazol-1-yl)-piperidin-1-yl]-acetamide], for which the melting point is 228 to 229 °C. In addition, in data set [1] (setting [7]), the IC50 came to 150 nM. In data set [6] (setting [8]), the half-inhibitory concentration (IC50) is 87 nM. In data set [2], the IC50 was above 5 µM. The activity at 10 µM in data set [3] worked out at 101%. Further, the IC50 in data set [4] is above 5 µM. For the same molecule, the IC50 in data set [5] was above 5 µM.
Consider `O=C(CN1CCC(n2c(=O)[nH]c3ccccc32)CC1)Nc1ccc(-c2ccccc2)cc1` [Compound 275, N-Biphenyl-4-yl-2-[4-(2-oxo-2,3-dihydro-benzoimidazol-1-yl)-piperidin-1-yl]-acetamide], for which the melting point lay within 180 to 181 °C. Besides, the IC50 in data set [1] (setting [7]) came out at 42 nM. Moreover, the IC50 in data set [6] (setting [8]) turned out to be 19 nM. Also, in data set [2], the IC50 is above 5 µM. Also, the activity at 10 µM in data set [3] was 103%. Further, the IC50 in data set [4] was above 5 µM. Further, the IC50 in data set [5] is above 5 µM.
As to `Cl.O=C(CN1CCC(n2c(=O)[nH]c3ccccc32)CC1)NCCc1ccccc1` [Compound 280, 2-[4-(2-Oxo-2,3-dihydro-benzoimidazol-1-yl)-piperidin-1-yl]-N-phenethyl-acetamide; hydrochloride], the melting point was in the range of 181 to 182 °C. Moreover, the IC50 in data set [2] was above 5 µM. Further, the activity at 10 µM in data set [3] was 90%. Moreover, in data set [4], the IC50 is above 5 µM. In addition, the IC50 in data set [5] is above 5 µM.
In the case of `CC(=O)NC1CCN(CC(=O)Nc2ccc(C3CCCCC3)cc2)C1` (centres unmarked) [Compound 290, 2-(3-Acetylamino-pyrrolidin-1-yl)-N-(4-cyclohexyl-phenyl)-acetamide], the melting point is 105 to 110 °C. Also, the IC50 in data set [1] (setting [7]) turned out to be 38 nM. The IC50 in data set [6] (setting [8]) was determined as 19 nM. Besides, the IC50 in data set [2] was above 5 µM. The activity at 10 µM in data set [3] amounted to 101%. Also, the IC50 in data set [4] is above 5 µM. In addition, the IC50 in data set [5] was above 5 µM.
Molecule `Cl.N#CC(c1ccccc1)C1CCN(CC(=O)Nc2ccc(C3CCCCC3)cc2)CC1` (centres unmarked) [Compound 300, 2-[4-(Cyano-phenyl-methyl)-piperidin-1-yl]-N-(4-cyclohexyl-phenyl)-acetamide; hydrochloride] gave a melting point of 150 °C. In data set [1] (setting [7]), the IC50 was found to be 13 nM. Also, in data set [6] (setting [8]), the IC50 came out at 13 nM. The concentration for half-maximal inhibition (IC50) in data set [2] is above 5 µM. Further, in data set [3], the activity at 10 µM worked out at 90%. For the same molecule, the IC50 in data set [4] is above 5 µM. In data set [5], the IC50 is above 5 µM.
As for `CC(=O)NCC1(c2ccccc2)CCN(CC(=O)Nc2ccc(C3CCCCC3)cc2)CC1.O=C(O)C(=O)O` [Compound 301, 2-[4-(Acetylamino-methyl)-4-phenyl-piperidin-1-yl]-N-(4-cyclohexyl-phenyl)-acetamide; compound with oxalic acid], the melting point came out at 146 °C. The same molecule registered an IC50 in data set [1] (hNPY5 IC50, [125I]PYY) of 32 nM. Besides, the IC50 in data set [6] (rNPY5 IC50, [125I]PYY) amounted to 32 nM. Further, in data set [2], the half-inhibitory concentration (IC50) is above 5 µM. The activity at 10 µM in data set [3] is 101%. Besides, in data set [4], the IC50 was above 5 µM. Further, the IC50 in data set [5] is above 5 µM.

The IC50 is the concentration at which inhibition is half-maximal. The melting point is the temperature, or range, at which the solid turns liquid.
